According to patent US20120076788A1, “C-CBL AND ANTAGONISTS THEREOF FOR THE TREATMENT AND DIAGNOSIS OF CANCER” (Centre National De La Recherche Scientifique (C.N.R.S.), priority 2009, published 2012):
Entries after “also recorded” stand apart in the source; their conditions may differ.

Legend:
[1] = test system: c-Cbl KO and WT Mouse Embryonic Fibroblasts (MEF); assay: Western blotting of apoptosis proteins in c-Cbl KO and WT MEFs treated with apoptotic inducers; format: cell-based; conditions: for XIAP expression, decrease relative to control level / c-IAP2 expression, decrease relative to control level: MEFs, apoptosis activation 24 hours (FIG. 3B)
Experimental: The western blotting (WB) experiments, immunohistochemistry (IHC) experiments and RT PCR experiments, with coamplification of the S 20 ribosomal gene, were carried out according to conventional methods already described in e.g. Omezzine et al. (2003, Biol. Reprod., 69: 752-760), Bozec et al. (2004, J. Endocr., 183: 79-90) and El Chami et al. (2005, J. Cell. Biol., 651-661).
(§1) The MEFs KO for c-cbl and the MEFs WT were cultured in DMEM, 10% FCS. The apoptosis inducers were used at a final concentration of 0.5 mM in case of H2O2, and at 10 μM in case of etoposide. The cells were tested for apoptosis 24 hours after treatment. The human prostate cancer lines were transfected with 125 nM of c-cbl IRNA for 6 hours, and were tested for quenching of c-cbl expression 24 or 48 hours after transfection. The treatment was the same with RAT1-MEN2A cells.
(§2) Each of them are known to involve different signaling routes, both leading to the mitochondrial pathway of apoptosis. Hydrogen peroxide activates C-Jun Kinase, whereas Etoposide blocks topoisomerase II causing dsDNA breaks and DNA-PK/p53 activation (DeYulia et al. 2005 Proc Natl Acad Sci USA 102:5044-9; Kamata and Hirata 1999 Cell Signal 11:1-14; Karpinich et al. 2002 J Biol Chem 277:16547-52).

[2] = test system: c-Cbl KO and WT Mouse Embryonic Fibroblasts (MEF); assay: Apoptotic cells (DAPI nuclear fragmentation, TUNEL) in c-Cbl KO and WT MEFs treated with H2O2 or Etoposide; format: cell-based; set-up: more apoptotic cells in KO than in WT MEF cultures: dose or concentration left out as unconfirmed; conditions: for more apoptotic cells in KO than in WT MEF cultures: average, 16 or 24 H
Experimental: as §1, with “The apoptosis inducers were used at a final concentration of 0.5 mM in case of H2O2, and at 10 μM in case of etoposide.” left out
as §2

LNCaP cells [3] = assay: Protein expression in LNCaP cells cultured with hydrogen peroxide or etoposide; format: cell-based, human; conditions: 24 hours; for Bax protein expression: particularly upon etoposide treatment; for Bcl-2 expression / c-Cbl expression / c-IAP2 expression: versus absence of agent
Experimental: (§3) A. c-Cbl expression upon a 24 hours treatment with 25 or 50 nM of hydrogen peroxide respectively, or with 10 or 30 μM of etoposide respectively. Expression of the anti-apoptotic Bcl-2 and c-IAP2 proteins and of the pro-apoptotic Bcl-2 family protein Bax is also shown. B. c-Cbl expression after 48 hours of c-Cbl silencing. Expression of APE1, which is indicative of oxidative stress, is shown compared with medium control (Ctrl) and with si-control (si-Ctrl).
(§4) LNCaP is a human cell line, derived from a prostatic hormone-dependent metastatic tumor. The cells were maintained in RPMI 1640 medium (Invitrogen), supplemented with 7.5% FCS, 20 μg/ml streptomycin, 20 U/ml nystatin. LNCaP were used between the passages 50-60. For western-blotting LNCaP cells were seeded in 10cm disk (22.10^5 cells) and 6 cm disk (8.10^5 cells) respectively, with 5 disks per condition. Cells were allowed to attach for 24H and treated with various concentrations of R1881 at day 0. All the cells, including the controls, were cultured in the presence of the same ethanol concentration. For H2O2 or etoposide treatment, LNCaP cells were cultured for 24 hours in the presence of known concentrations of H2O2 or etoposide. The RNA silencing was classically done in Optimen medium (Gibco) using lipofectamine 2000 following the manufacturer's instructions (Invitrogen). The c-Cbl RNAi was generated by Eurogentec. Its sequence is: […] (SEQ ID NO: 2). The siRNA controls were purchased from Invitrogen : siRNA-A (sc-37007) and siRNA-B (sc-44230).

LNCaP cells [4] = assay: c-Cbl silencing in LNCaP cells, APE1/REF1 oxidative stress signal; format: cell-based, human; conditions: 48 hours of c-Cbl silencing, versus Ctrl and si-Ctrl
Experimental: as §3
as §4, with “(SEQ ID NO: 2). The siRNA controls were purchased from Invitrogen : siRNA-A (sc-37007) and siRNA-B (sc-44230).” left out

c-cbl [5] = assay: Effectiveness of c-cbl iRNA on c-cbl; conditions: human, rat and mouse c-cbl
From the text: (§5) The c-cbl IRNA was produced by Eurogentec and had the following sequences: 5′ […] 3′ (SEQ ID NO: 2) and 5′ […] 3′ (SEQ ID NO: 3). It is effective on human, rat and mouse c-cbl. It is ineffective on cbl-b.

cbl-b = assay: Effectiveness of c-cbl iRNA on cbl-b
From the text: as §5

c-Cbl [6] = assay: c-Cbl expression (Western blotting, RT-PCR) in prostate lobes of adult rats exposed to flutamide; format: in vivo, rat
c-Cbl [7] = assay: In situ c-Cbl staining of rat prostate after flutamide treatment; format: in vivo; conditions: 10mg/kg/day, 96 H

| impact on the number of living cells (c-Cbl [6]; doses 2 to 10 mg/kg/day) | integrity of the epithelium border (c-Cbl [7]) | Compound | cleaved caspase 3 expression ([1]; KO or WT MEFs, 24 hours) | XIAP expression, decrease relative to control level [1] | c-IAP2 expression, decrease relative to control level [1] | percentage of apoptotic cells ([2]; WT MEF cultures) | more apoptotic cells in KO than in WT MEF cultures [2] | percentage of apoptotic cells ([2]; c-Cbl KO MEF cultures) | Bax protein expression (LNCaP cells [3]) | Bcl-2 expression (LNCaP cells [3]) | c-Cbl expression (LNCaP cells [3]) | c-IAP2 expression (LNCaP cells [3]) | activated caspase 3 expression increase ([1]; WT MEFs, 24 hours) | cleaved (activated) caspase 3 expression relative to control ([1]; c-Cbl KO MEFs, 24 hours) | sensitivity of c-cbl KO MEF cells versus WT MEF cells ([2]; TUNEL, FIG. 10) | c-Cbl expression (LNCaP cells [3]; listed as H202) | anti-APE1/REF1 signal (oxidative stress) (LNCaP cells [4]) | effectiveness on c-cbl (c-cbl [5]) | effectiveness on cbl-b (cbl-b) | dose from which decreased c-cbl expression was observed (c-Cbl [6]; dose/effect experiments, rat ventral prostate) |
| --- | --- | --- | --- | --- | --- | --- | --- | --- | --- | --- | --- | --- | --- | --- | --- | --- | --- | --- | --- | --- |
| – | – | COc1cc([C@@H]2c3cc4c(cc3[C@@H](O[C@@H]3O[C@@H]5CO[C@@H](C)O[C@H]5[C@H](O)[C@H]3O)[C@H]3COC(=O)[C@H]23)OCO4)cc(OC)c1O [Etoposide] | slight but not significant increase | around one/third | around one/third | 5.8% | 29% | 4% | increased | slightly less expressed | slightly less expressed; also recorded: decreased | slightly less expressed | – | – | – | – | – | – | – | – |
| – | – | OO [H2O2, Hydrogen peroxide] | – | around one/third | around one/third | 4.9% | 43% | 8.75% | increased | slightly less expressed | slightly less expressed | slightly less expressed | two times | three times and half | about twice | decreased | – | – | – | – |
| – | – | c-cbl IRNA: c-cbl iRNA produced by Eurogentec, sequences SEQ ID NO: 2 and SEQ ID NO: 3 (chain 1 GGGAAGGCUUCUAUUUGUU; chain 2 CUGUCCAUCUAGAGACAAA; listed as RNA, chemistry not given here) | – | – | – | – | – | – | – | – | – | – | – | – | – | – | slight decrease | effective | ineffective | – |
| very weak impact | did not affect at all | CC(C)C(=O)Nc1ccc([N+](=O)[O-])c(C(F)(F)F)c1 [flutamide] | – | – | – | – | – | – | – | – | – | – | – | – | – | – | – | – | – | ≥ 2 mg/kg/day |
